Laboratory results published in ChEMBL document CHEMBL2016493, “Design, synthesis, synergistic antimicrobial activity and cytotoxicity of 4-aryl substituted 3,4-dihydropyrimidinones of curcumin” (Bioorg Med Chem Lett, 2012).
Activity calls are given as the source filed them. No cut-off for these calls is given here.

Tests used:
[1] = system: Aspergillus flavus; assay: Antifungal activity against Aspergillus flavus MTCC 1021 at 20 uM/ml after 48 hrs by paper disc diffusion method; format: functional; details: MTCC 1021, 48 h, read-out: IZ
[2] = system: Staphylococcus aureus; assay: Antibacterial activity against Staphylococcus aureus ATCC 11632 at 160 uM/ml after 24 hrs by kirby-bauer method; format: functional; details: ATCC 11632, 24 h, read-out: IZ
[3] = system: Salmonella typhimurium; assay: Antibacterial activity against Salmonella typhimurium ATCC 23564 at 160 uM/ml after 24 hrs by kirby-bauer method; format: functional
[4] = system: Curvularia lunata; assay: Antifungal activity against Curvularia lunata MTCC 581 at 160 uM/ml after 48 hrs by paper disc diffusion method; format: functional; details: MTCC 581, 48 h, read-out: IZ
[5] = system: Staphylococcus aureus; assay: Antibacterial activity against Staphylococcus aureus ATCC 11632 at 20 uM/ml after 24 hrs by kirby-bauer method; format: functional
[6] = system: Aspergillus niger; assay: Antifungal activity against Aspergillus niger MTCC 1108 at 80 uM/ml after 48 hrs by paper disc diffusion method; format: functional; details: MTCC 1108, 48 h, read-out: IZ
[7] = system: Aspergillus niger; assay: Antifungal activity against Aspergillus niger MTCC 1108 at 40 uM/ml after 48 hrs by paper disc diffusion method; format: functional; details: MTCC 1108, 48 h, read-out: IZ
[8] = system: Trichoderma viride; assay: Antifungal activity against Trichoderma viride MTCC 1107 at 160 uM/ml after 48 hrs by paper disc diffusion method; format: functional; details: MTCC 1107, 48 h, read-out: IZ
[9] = system: Escherichia coli; assay: Antibacterial activity against Escherichia coli ATCC 35218 at 40 uM/ml after 24 hrs by kirby-bauer method; format: functional; details: ATCC 35218, 24 h, read-out: IZ
[10] = system: Escherichia coli; assay: Antibacterial activity against Escherichia coli ATCC 35218 at 160 uM/ml after 24 hrs by kirby-bauer method; format: functional; details: ATCC 35218, 24 h, read-out: IZ
[11] = system: Curvularia lunata; assay: Antifungal activity against Curvularia lunata MTCC 581 at 40 uM/ml after 48 hrs by paper disc diffusion method; format: functional; details: MTCC 581, 48 h, read-out: IZ
[12] = system: Staphylococcus aureus; assay: Antibacterial activity against Staphylococcus aureus ATCC 11632 at 80 uM/ml after 24 hrs by kirby-bauer method; format: functional; details: ATCC 11632, 24 h, read-out: IZ
[13] = system: Burkholderia pseudomallei; assay: Antibacterial activity against Burkholderia pseudomallei NTCC 10274 at 20 uM/ml after 24 hrs by kirby-bauer method; format: functional; details: NTCC 10274, 24 h, read-out: IZ
[14] = system: Curvularia lunata; assay: Antifungal activity against Curvularia lunata MTCC 581 at 20 uM/ml after 48 hrs by paper disc diffusion method; format: functional; details: MTCC 581, 48 h, read-out: IZ
[15] = system: HepG2
[16] = system: Trichoderma viride; assay: Antifungal activity against Trichoderma viride MTCC 1107 at 80 uM/ml after 48 hrs by paper disc diffusion method; format: functional; details: MTCC 1107, 48 h, read-out: IZ
[17] = system: QG-56; assay: Cytotoxicity against human QG56 cells after 48 hrs by MTT assay; format: functional, cell-based
[18] = system: Burkholderia pseudomallei; assay: Antibacterial activity against Burkholderia pseudomallei NTCC 10274 at 80 uM/ml after 24 hrs by kirby-bauer method; format: functional; details: NTCC 10274, 24 h, read-out: IZ
[19] = system: Trichoderma viride; assay: Antifungal activity against Trichoderma viride MTCC 1107 at 40 uM/ml after 48 hrs by paper disc diffusion method; format: functional; details: MTCC 1107, 48 h, read-out: IZ
[20] = system: Aspergillus flavus; assay: Antifungal activity against Aspergillus flavus MTCC 1021 at 160 uM/ml after 48 hrs by paper disc diffusion method; format: functional; details: MTCC 1021, 48 h, read-out: IZ
[21] = system: Trichoderma viride; assay: Antifungal activity against Trichoderma viride MTCC 1107 at 20 uM/ml after 48 hrs by paper disc diffusion method; format: functional; details: MTCC 1107, 48 h, read-out: IZ
[22] = system: Escherichia coli; assay: Antibacterial activity against Escherichia coli ATCC 35218 at 80 uM/ml after 24 hrs by kirby-bauer method; format: functional; details: ATCC 35218, 24 h, read-out: IZ
[23] = system: Staphylococcus aureus; assay: Antibacterial activity against Staphylococcus aureus ATCC 11632 at 40 uM/ml after 24 hrs by kirby-bauer method; format: functional
[24] = system: Burkholderia pseudomallei; assay: Antibacterial activity against Burkholderia pseudomallei NTCC 10274 at 40 uM/ml after 24 hrs by kirby-bauer method; format: functional; details: NTCC 10274, 24 h, read-out: IZ
[25] = system: Curvularia lunata; assay: Antifungal activity against Curvularia lunata MTCC 581 at 80 uM/ml after 48 hrs by paper disc diffusion method; format: functional; details: MTCC 581, 48 h, read-out: IZ
[26] = system: Aspergillus niger; assay: Antifungal activity against Aspergillus niger MTCC 1108 at 160 uM/ml after 48 hrs by paper disc diffusion method; format: functional; details: MTCC 1108, 48 h, read-out: IZ
[27] = system: Pseudomonas aeruginosa; assay: Antibacterial activity against Pseudomonas aeruginosa ATCC 15499 at 80 uM/ml after 24 hrs by kirby-bauer method; format: functional; details: ATCC 15499, 24 h, read-out: IZ
[28] = system: Pseudomonas aeruginosa; assay: Antibacterial activity against Pseudomonas aeruginosa ATCC 15499 at 40 uM/ml after 24 hrs by kirby-bauer method; format: functional; details: ATCC 15499, 24 h, read-out: IZ
[29] = system: Aspergillus niger; assay: Antifungal activity against Aspergillus niger MTCC 1108 at 20 uM/ml after 48 hrs by paper disc diffusion method; format: functional
[30] = system: Burkholderia pseudomallei; assay: Antibacterial activity against Burkholderia pseudomallei NTCC 10274 at 160 uM/ml after 24 hrs by kirby-bauer method; format: functional; details: NTCC 10274, 24 h, read-out: IZ
[31] = system: Aspergillus flavus; assay: Antifungal activity against Aspergillus flavus MTCC 1021 at 80 uM/ml after 48 hrs by paper disc diffusion method; format: functional; details: MTCC 1021, 48 h, read-out: IZ
[32] = system: HCT-116
[33] = system: Pseudomonas aeruginosa; assay: Antibacterial activity against Pseudomonas aeruginosa ATCC 15499 at 20 uM/ml after 24 hrs by kirby-bauer method; format: functional; details: ATCC 15499, 24 h, read-out: IZ
[34] = system: Pseudomonas aeruginosa; assay: Antibacterial activity against Pseudomonas aeruginosa ATCC 15499 at 160 uM/ml after 24 hrs by kirby-bauer method; format: functional; details: ATCC 15499, 24 h, read-out: IZ
[35] = system: Aspergillus flavus; assay: Antifungal activity against Aspergillus flavus MTCC 1021 at 40 uM/ml after 48 hrs by paper disc diffusion method; format: functional; details: MTCC 1021, 48 h, read-out: IZ
[36] = system: Escherichia coli; assay: Antibacterial activity against Escherichia coli ATCC 35218 at 20 uM/ml after 24 hrs by kirby-bauer method; format: functional; details: ATCC 35218, 24 h, read-out: IZ
[37] = system: Salmonella typhimurium; assay: Antibacterial activity against Salmonella typhimurium ATCC 23564 at 40 uM/ml after 24 hrs by kirby-bauer method; format: functional, Salmonella enterica subsp. enterica serovar Typhimurium; details: Salmonella enterica, ATCC 23564, 24 h; read-out: IZ
[38] = system: Salmonella typhimurium; assay: Antibacterial activity against Salmonella typhimurium ATCC 23564 at 80 uM/ml after 24 hrs by kirby-bauer method; format: functional, Salmonella enterica subsp. enterica serovar Typhimurium; details: Salmonella enterica, ATCC 23564, 24 h; read-out: IZ
[39] = system: Salmonella typhimurium; assay: Antibacterial activity against Salmonella typhimurium ATCC 23564 at 20 uM/ml after 24 hrs by kirby-bauer method; format: functional, Salmonella enterica subsp. enterica serovar Typhimurium; details: Salmonella enterica, ATCC 23564, 24 h; read-out: IZ

COc1cc(/C=C/C(=O)C2=C(/C=C/c3ccc(O)c(OC)c3)NC(=S)NC2c2ccc(O)cc2)ccc1O (stereo unspecified)
zone of inhibition at 20 µM [1]: 9 mm | zone of inhibition at 160 µM [2]: 12 mm | inhibition zone (IZ) ([3]; Salmonella enterica subsp. enterica serovar Typhimurium): inactive | zone of inhibition at 160 µM [4]: 24 mm | inhibition zone (IZ) [5]: inactive | zone of inhibition at 80 µM [6]: 11 mm | zone of inhibition at 40 µM [7]: 9 mm | zone of inhibition at 160 µM [8]: 20 mm | zone of inhibition at 40 µM [9]: 17 mm | zone of inhibition at 160 µM [10]: 22 mm | zone of inhibition at 40 µM [11]: 21 mm | zone of inhibition at 80 µM [12]: 10 mm | zone of inhibition at 20 µM [13]: 14 mm | zone of inhibition at 20 µM [14]: 20 mm | IC50 [15]: 100 uM/ml | zone of inhibition at 80 µM [16]: 17 mm | IC50 [17]: 50 uM/ml | zone of inhibition at 80 µM [18]: 17 mm | zone of inhibition [19]: 14 mm | zone of inhibition at 160 µM [20]: 15 mm | zone of inhibition at 20 µM [21]: 11 mm | zone of inhibition at 80 µM [22]: 18 mm | inhibition zone (IZ) [23]: inactive | zone of inhibition at 40 µM [24]: 16 mm | zone of inhibition at 80 µM [25]: 22 mm | zone of inhibition at 160 µM [26]: 14 mm | zone of inhibition at 80 µM [27]: 14 mm | zone of inhibition at 40 µM [28]: 12 mm | inhibition zone (IZ) [29]: inactive | zone of inhibition at 160 µM [30]: 19 mm | zone of inhibition at 80 µM [31]: 13 mm | IC50 [32]: 50 uM/ml | zone of inhibition at 20 µM [33]: 9 mm | zone of inhibition at 160 µM [34]: 18 mm | zone of inhibition at 40 µM [35]: 11 mm | zone of inhibition at 20 µM [36]: 13 mm

CC1(C)S[C@@H]2[C@H](NC(=O)[C@H](N)c3ccccc3)C(=O)N2[C@H]1C(=O)O [AMPICILLIN]
zone of inhibition at 160 µM [2]: 37 mm | zone of inhibition at 160 µM ([3]; Salmonella enterica, ATCC 23564, 24 h, read-out: IZ): 51 mm | zone of inhibition at 20 µM ([5]; ATCC 11632, 24 h, read-out: IZ): 28 mm | zone of inhibition at 40 µM [37]: 44 mm | zone of inhibition at 40 µM [9]: 30 mm | zone of inhibition at 160 µM [10]: 34 mm | zone of inhibition at 80 µM [12]: 30 mm | zone of inhibition at 20 µM [13]: 38 mm | zone of inhibition at 80 µM [38]: 45 mm | zone of inhibition at 20 µM [39]: 37 mm | zone of inhibition at 80 µM [18]: 41 mm | zone of inhibition at 80 µM [22]: 32 mm | zone of inhibition at 40 µM ([23]; ATCC 11632, 24 h, read-out: IZ): 29 mm | zone of inhibition at 40 µM [24]: 39 mm | zone of inhibition at 80 µM [27]: 36 mm | zone of inhibition at 40 µM [28]: 34 mm | zone of inhibition at 160 µM [30]: 46 mm | zone of inhibition at 20 µM [33]: 31 mm | zone of inhibition at 160 µM [34]: 39 mm | zone of inhibition at 20 µM [36]: 30 mm
